“And” between values parts separate entries of the source, which are not always exact repeats. Equal entries are not always repeated.
How the values were obtained:
[1] = system: zebrafish larvae cardiac rhythm; assay: Cardiac frequency monitoring in zebrafish larvae under dark/380 nm/550 nm; format: in vivo; conditions: 10 μM, 7 dpf larvae, dark and both illumination conditions equivalent
[2] = UV/Vis photochemical characterization; format: physicochemical
β2‐AR = β2‐AR (Homo sapiens, UniProt P07550); assay: β2‐AR inhibition of cimaterol-stimulated cAMP in HEK293 H188 M1 cells; conditions: in the dark and upon illumination at 380 nm, cimaterol 3 nM
β1‐AR = β1‐AR (Homo sapiens, UniProt P08588); assay: β1‐AR functional cAMP assay; format: cell-based
[3] = Photostationary state quantification by 1H‐NMR; format: physicochemical; conditions: 12 °C, 100 μM in D2O
[4] = 50 μM in Epac buffer+0.5 % DMSO, 25–28 °C

Chain of β1‐AR (P08588 whole entry): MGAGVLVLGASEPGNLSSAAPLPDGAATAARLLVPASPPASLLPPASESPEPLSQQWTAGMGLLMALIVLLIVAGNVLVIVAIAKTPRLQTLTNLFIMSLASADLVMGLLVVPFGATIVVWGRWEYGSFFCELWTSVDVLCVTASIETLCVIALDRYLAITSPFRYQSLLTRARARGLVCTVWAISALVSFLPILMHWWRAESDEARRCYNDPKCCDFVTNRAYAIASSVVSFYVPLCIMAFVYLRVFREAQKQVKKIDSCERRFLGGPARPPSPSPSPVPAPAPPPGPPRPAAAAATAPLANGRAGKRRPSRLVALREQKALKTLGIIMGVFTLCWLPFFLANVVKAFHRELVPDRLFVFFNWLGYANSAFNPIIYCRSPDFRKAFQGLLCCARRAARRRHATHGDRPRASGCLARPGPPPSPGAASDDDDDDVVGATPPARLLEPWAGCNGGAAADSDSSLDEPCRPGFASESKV
Chain of β2‐AR (P07550 whole entry): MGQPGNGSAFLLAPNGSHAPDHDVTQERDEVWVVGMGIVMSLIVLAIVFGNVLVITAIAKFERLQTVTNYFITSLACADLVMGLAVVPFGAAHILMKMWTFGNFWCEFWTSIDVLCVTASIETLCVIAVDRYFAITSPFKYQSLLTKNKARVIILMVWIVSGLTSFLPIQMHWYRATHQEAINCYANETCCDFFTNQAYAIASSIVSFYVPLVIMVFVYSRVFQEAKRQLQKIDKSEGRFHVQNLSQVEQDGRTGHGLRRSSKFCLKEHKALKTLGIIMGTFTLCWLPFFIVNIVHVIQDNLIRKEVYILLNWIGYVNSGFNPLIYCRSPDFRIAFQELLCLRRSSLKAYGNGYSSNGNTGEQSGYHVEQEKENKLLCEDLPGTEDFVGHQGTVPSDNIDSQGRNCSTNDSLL

τ cis→trans [2] [s⁻¹] | λ n‐π* (cis) [2, 4] [nm] | λ π‐π* (trans) [2, 4] [nm] | t 1/2 (thermal relaxation of cis isomer) ([2]; 50 μM in Epac buffer+0.5 % DMSO, 28 °C, after 3 min 365 nm) [h] | τ trans→cis ([2]; 365 nm, CoolLED 5 % intensity (0.1 mW mm^−2), 50 μM in Epac buffer+0.5 % DMSO) [s⁻¹] | IC50 values against β2‐AR (β2‐AR) | EC50 (β1‐AR; EC50 DARK, dark (trans isomer)) [nM] | EC50 (β1‐AR; EC50 LIGHT, constant violet light 380 nm (cis isomer)) [nM] | β1/β2 ratio DARK (β1‐AR; dark, ratio of 1 implies no selectivity towards β1‐AR) | functional profile towards β1‐AR (β1‐AR; two β1‐AR expression levels) | β1/β2 ratio LIGHT (β1‐AR; violet light 380 nm, ratio of 1 implies no selectivity) | PPS (Photoinduced Potency Shift) (β1‐AR; β1‐AR, relation between EC50 in light and dark) | PSS365 ([3]; after 365 nm illumination) [%cis] | PSS530 ([3]; after 525 nm illumination) | Structure (SMILES) | cardiac rhythm [1]
 |  |  |  |  |  |  |  |  |  |  |  |  |  | COc1ccccc1OCCNCC(O)COc1cccc2[nH]c3ccccc3c12 (stereo not drawn) [Carvedilol, carvedilol] | significant reduction in the cardiac rhythm
57.6 | 430 | 346 | 67.6 | 4.4 | within the μM range | 15.1 | 331 | 161.8 | low efficacy partial agonists | 8.6 | 20.08 | 95 | 76.3 % trans and 76 % trans | CC(C)NC[C@H](O)COc1ccc(/N=N/c2ccccc2)cc1 [pAzo‐1] | 

From publication PMC9401038 (Angewandte Chemie (International Ed. in English), 2022)
